Test results published in patent US20250127796A1, “METHODS OF TREATING CANCER WITH PI3K INHIBITOR, GDC-0077” (Genentech, Inc., priority 2018, published 2025).
Where two headings read alike, the source gives them in different places.

Assays:
[1] = system: Class I PI3K beta, delta, and gamma isoforms; conditions: selectivity of alpha over beta; cited from earlier work
pAKT, pPRAS40, and pS6 = experiment: downstream PI3K-pathway markers; type: cell-based; conditions: nonclinical studies
[2] = system: tumor cells bearing mutant PI3K; conditions: mutant versus WT PI3K cells; cited from earlier work
[3] = system: PIK3CA-mutant breast cancer cell lines; experiment: proliferation and apoptosis of PIK3CA-mutant breast cancer cell lines; type: cell-based; conditions: nonclinical studies
[4] = system: human breast xenograft models harboring PIK3CA mutations; experiment: tumor growth in human breast xenograft models harboring PIK3CA mutations; type: in vivo; conditions: nonclinical studies
[5] = in combination with letrozole; cited from earlier work
[6] = in combination with fulvestrant; cited from earlier work

Row | Compound | less potent biochemical inhibition for other Class I PI3K beta, delta, and gamma isoforms (versus PI3K alpha) [1] | downstream PI3K-pathway markers, including pAKT, pPRAS40, and pS6 (pAKT, pPRAS40, and pS6) | potency in mutant PI3K tumor cells over wild type (WT) PI3K cells [2] | proliferation and apoptosis of PIK3CA-mutant breast cancer cell lines [3] | tumor growth in human breast xenograft models harboring PIK3CA mutations [4] | patients who required ≥1 dose reduction of palbociclib [5] | patients who required ≥1 dose reduction of palbociclib [6]
1 | C[C@H](Nc1ccc2c(c1)OCCn1cc(N3C(=O)OC[C@H]3C(F)F)nc1-2)C(N)=O [GDC-0077, (S)-2-((2-((S)-4-(difluoromethyl)-2-oxooxazolidin-3-yl)-5,6-dihydrobenzo[f]imidazo[1,2-d][1,4]oxazepin-9-yl)amino)propanamide] | > 300 fold | reduces downstream PI3K-pathway markers | increased potency in tumor cells bearing mutant PI3K over wild type (WT) PI3K cells | inhibits proliferation and induces apoptosis | inhibits tumor growth | – | –
2 | CC(=O)c1c(C)c2cnc(Nc3ccc(N4CCNCC4)cn3)nc2n(C2CCCC2)c1=O [palbociclib, 6-acetyl-8-cyclopentyl-5-methyl-2-(5-(piperazin-1-yl)pyridin-2-ylamino)pyrido[2,3-d]pyrimidin-7(8H)-one] | – | – | – | – | – | 36% | 34%
